Read-outs that look alike come from different tables or passages of the source.

The values that follow come from patent US12466856B2, “Echinocandin analogues and preparation method therefor” (SHANGHAI SENHUI MEDICINE CO., LTD., priority 2019, dated 2025).

Format in all cases: cell-based
The subject of assay [1] is Candida tropicalis (amphotericin-resistant strain) ATCC 200956. Kind of assay: microbe, parasite or virus in culture. To be noted: Candida tropicalis, ATCC200956, read-out: MIC, Candida tropicalis (amphotericin-resistant strain) ATCC 200956. The method, then:
(§1) After a test compound was serially diluted, an MIC (minimum inhibitory concentration) assay was performed on the standard Candida strain and an MEC (minimum effective concentration) assay on the standard Aspergillus strain. The MIC assay was performed according to the guidelines of the Clinical and Laboratory Standards Institute (CLSI M27-A3) and the MEC assay according to the guidelines of the Clinical and Laboratory Standards Institute (CLSI M38-A2).
(§2) The frozen strain was passaged at least twice, and a single colony was picked and resuspended in normal saline or sterile water in a tube. The suspension was vortexed and adjusted to 0.5 McF (1×10^6 to 5×10^6 CFU/mL) using a spectrophotometer at wavelength 530 nm. The suspension was 50-fold diluted with normal saline and then 20-fold diluted with 1×RPMI 1640 broth (1×10^3 to 5×10^3 CFU/mL). 10 μL of the suspension was applied to an SDA plate for colony counting, with a range from about 10 to 50 single colonies.
(§3) At this time, the bacterium concentration in each well should be 0.5×10^3 to 2.5×10^3 CFU/mL.
(§4) For echinocandin drugs, Aspergillus was incubated at 28° C. for 21-26 h, and then the MEC results were read.
(§5) Yeast-type fungi: A disposable sealing film was applied to the 96-well plate, and the mixture was well mixed by shaking. Observation was performed through a plate reader with the naked eye. Comparisons were made to the growth control, and the minimum compound concentration corresponding to ≥50% growth inhibition was defined as MIC. Pictures were taken and saved using an automatic plate reader.

Assay [2] concerns Candida albicans ATCC 44858. Kind of assay: MIC assay (CLSI M27-A3), Candida albicans ATCC 44858. As to conditions: Candida albicans. How it is done: as §1, §2, §3, §4, §5
Assay [3] relates to Candida albicans (azole drug-resistant strain) R357. Kind of assay: MIC assay (CLSI M27-A3), Candida albicans azole drug-resistant strain R357. As to conditions: Candida albicans; second batch; read-out: MIC, Candida albicans (azole drug-resistant strain) R357. The method, then: as §1, §2, §3, §4, §5
Assay [4] has as its system Candida glabrata ATCC 36583. The assay can be described thus: MIC assay (CLSI M27-A3), Candida glabrata ATCC 36583. To be noted: Nakaseomyces glabratus, ATCC36583; second batch; read-out: MIC, Candida glabrata ATCC 36583. How it is done: as §1, §2, §3, §4, §5
Assay [5] deals with Candida albicans (azole drug-resistant strain) R358. The assay can be described thus: MIC assay (CLSI M27-A3), Candida albicans azole drug-resistant strain R358. To be noted: Candida albicans; second batch; read-out: MIC, Candida albicans (azole drug-resistant strain) R358. The method, then:
as §1, §2, §3, §4, §5

Assay [6] deals with Candida albicans ATCC 90028. Kind of assay: MIC assay (CLSI M27-A3), Candida albicans ATCC 90028. As to conditions: Candida albicans, ATCC90028, second batch. How it is done: as §1, §2
At this time, the bacterium concentration in each well should be 0.5×10^3 to 2.5×10^3 CFU/mL. […]
as §5

Where [7] appears, read: 24 h, 35° C., read-out: MIC, Candida albicans ATCC 90028.
Where [8] appears, read: + 50% human serum, read-out: MIC, Candida albicans + 50% human serum ATCC 90028.
The mark [9] stands for this setting: ATCC44858, second batch, read-out: MIC, Candida albicans ATCC 44858.

For the compound `CCCCCOc1ccc(-c2ccc(-c3ccc(C(=O)N[C@H]4C[C@@H](O)[C@@H](O[C@@H](C)C[N+](C)(C)C)NC(=O)[C@@H]5[C@@H](O)[C@@H](C)CN5C(=O)[C@H]([C@@H](C)O)NC(=O)[C@H]([C@H](O)[C@@H](O)c5ccc(O)cc5)NC(=O)[C@@H]5C[C@@H](O)CN5C(=O)[C@H]([C@@H](C)O)NC4=O)cc3)cc2)cc1` [Example 24], the MIC in assay [1] stood at 0.125 µg/mL; in assay [2] (ATCC44858, read-out: MIC, Candida albicans ATCC 44858), 0.125 µg/mL; in assay [3], 0.5 µg/mL; in assay [4] it was 0.25 µg/mL; in assay [5], 0.0625 µg/mL; in assay [6] (setting [7]) it was 0.25 µg/mL. Besides, the MIC in assay [6] (setting [8]) worked out at 0.25 µg/mL.

Regarding `CCCCCOc1ccc(-c2ccc(-c3ccc(C(=O)N[C@H]4C[C@@H](O)[C@@H](OC[C@H](C)[N+](C)(C)C)NC(=O)[C@@H]5[C@@H](O)[C@@H](C)CN5C(=O)[C@H]([C@@H](C)O)NC(=O)[C@H]([C@H](O)[C@@H](O)c5ccc(O)cc5)NC(=O)[C@@H]5C[C@@H](O)CN5C(=O)[C@H]([C@@H](C)O)NC4=O)cc3)cc2)cc1` [Example 22], the MIC in assay [1] was determined as 0.25 µg/mL; in assay [2] (setting [9]), 0.25 µg/mL; in assay [3], 0.5 µg/mL; in assay [4] it was 0.5 µg/mL; in assay [5], 0.25 µg/mL; in assay [6] (setting [7]), 0.25 µg/mL. In addition, the MIC in assay [6] (setting [8]) came to 0.25 µg/mL.

As for `CCCCCOc1ccc(-c2ccc(-c3ccc(C(=O)N[C@H]4C[C@@H](O)[C@@H](O[C@H]5CC[N+](C)(C)C5)NC(=O)[C@@H]5[C@@H](O)[C@@H](C)CN5C(=O)[C@H]([C@@H](C)O)NC(=O)[C@H]([C@H](O)[C@@H](O)c5ccc(O)cc5)NC(=O)[C@@H]5C[C@@H](O)CN5C(=O)[C@H]([C@@H](C)O)NC4=O)cc3)cc2)cc1` [Example 26], the MIC in assay [1] worked out at 0.25 µg/mL; in assay [2] (setting [9]) it was 0.25 µg/mL; in assay [3] it was 0.5 µg/mL; in assay [4] it was 0.25 µg/mL; in assay [5], 0.25 µg/mL; in assay [6] (setting [7]), 0.25 µg/mL. Further, the MIC in assay [6] (setting [8]) was found to be 0.25 µg/mL.

On to `CCCCCOc1ccc(-c2ccc(-c3ccc(C(=O)N[C@H]4C[C@@H](O)[C@@H](O[C@@H]5CC[N+](C)(C)C5)NC(=O)[C@@H]5[C@@H](O)[C@@H](C)CN5C(=O)[C@H]([C@@H](C)O)NC(=O)[C@H]([C@H](O)[C@@H](O)c5ccc(O)cc5)NC(=O)[C@@H]5C[C@@H](O)CN5C(=O)[C@H]([C@@H](C)O)NC4=O)cc3)cc2)cc1` [Example 25], for which the MIC worked out at 0.25 µg/mL in assay [1]; 0.125 µg/mL in assay [2] (setting [9]); 0.25 µg/mL in assay [3]; 0.25 µg/mL in assay [4]; 0.25 µg/mL in assay [5]; 0.25 µg/mL in assay [6] (setting [7]). Also, the MIC in assay [6] (setting [8]) is 0.125 µg/mL.

On to `CCCCCOc1ccc(-c2ccc(-c3ccc(C(=O)N[C@H]4C[C@@H](O)[C@@H](OC[C@@H](C)[N+](C)(C)C)NC(=O)[C@@H]5[C@@H](O)[C@@H](C)CN5C(=O)[C@H]([C@@H](C)O)NC(=O)[C@H]([C@H](O)[C@@H](O)c5ccc(O)cc5)NC(=O)[C@@H]5C[C@@H](O)CN5C(=O)[C@H]([C@@H](C)O)NC4=O)cc3)cc2)cc1` [Example 23], for which the MIC is 0.25 µg/mL in assay [1]; 0.25 µg/mL in assay [2] (setting [9]); 0.25 µg/mL in assay [3]; 0.25 µg/mL in assay [4]; 0.125 µg/mL in assay [5]; 0.25 µg/mL in assay [6] (setting [7]). Further, in assay [6] (setting [8]), the MIC worked out at 0.25 µg/mL.
